Structures can show the parent of a compound that is named as a salt. Where two headings read alike, the source gives them in different places.

In data set [1] the target is T1, DOR (Homo sapiens, UniProt P41143).
T1 construct: expressed in transfected cells; host or cells: CHO
Nature of the data set: competitive radioligand binding assay, DOR ([3H]diprenorphine, CHO cell membranes). The settings on record: read-out: Ki (nM) DOR.

The test system of data set [2] is morphine-pelleted mice. Kind of data set: opioid withdrawal study in morphine-pelleted mice. The settings on record: for withdrawal symptoms (wet-dog shakes, escape jumps, paw tremors): 1 mg/kg s.c., compared to 1 mg/kg NLX.
Data set [3] deals with T2, MOR (Mus musculus, UniProt P42866). Nature of the data set: MOR [35S]GTPγS functional assay (MOR-CHO membranes). Conditions: read-out: MOR [35S]GTPγS Binding % Emax of DAMGO. Also noted: expressed in transfected cells; host or cells: CHO. The data set is classed as biochemical. The method, then:
The [^35S]GTPγS functional assay was conducted to determine the efficacy of the compounds at the MOR. […] The Bradford protein assay was utilized to determine and adjust the concentration of protein required for the assay. Nonspecific binding was determined with 20 μM unlabeled GTPγS. Furthermore, 3 μM DAMGO was included in the assay as the maximally effective concentration of a full agonist for the MOR. After incubation, the bound radioactive ligand was separated from the free radioligand by filtration through a GF/B glass fiber filter paper and rinsed three times with ice-cold wash buffer (50 mM Tris-HCl, pH 7.2) using the Brandel harvester. Bound radioactivity was determined by liquid scintillation counting. All assays were determined in duplicate and repeated at least three times. Net stimulated [^35S]GTPγS binding was defined as agonist-stimulated minus basal binding in the absence of agonist. Percent of DAMGO-stimulated [^35S]GTPγS binding was defined as (net-stimulated binding by ligand/net-stimulated binding by 3 μM DAMGO)×100%.
Results were reported as mean values ±SEM.
The [^35S]-GTPγS binding assay was carried out as well to determine the functionality on the MOR of each compound. […] The [^35S]GTPγS functional assay was conducted to determine the efficacy of the compounds at the MOR, KOR and DOR. […] The Bradford protein assay was utilized to determine and adjust the concentration of protein required for the assay. Nonspecific binding was determined with 20 μM unlabeled GTPγS. Furthermore, 3 μM DAMGO/U50488H/SNC80 was included in the assay as the maximally effective concentration of a full agonist for the MOR/KOR/DOR. After incubation, the bound radioactive ligand was separated from the free radioligand by filtration through a GF/B glass fiber filter paper using a Brandel harvester. Bound radioactivity was determined by liquid scintillation counting. All assays were determined in duplicate and repeated at least three times. Net stimulated [^35S]GTPγS binding was defined as agonist-stimulated minus basal binding in the absence of agonist. Percent of DAMGO/U50488H/SNC80 stimulated [^35S]GTPγS binding was defined as (net-stimulated binding by ligand/net-stimulated binding by 3 μM DAMGO U50488H/SNC80)×100%.
A general note: GTPγS is a poorly hydrolysed GTP analogue; its binding reports G protein activation.

Data set [4] relates to male Swiss Webster mice. Nature of the data set: warm-water tail immersion (tail flick / tail-withdrawal) assay, antinociception. Type of data set: in vivo, mouse. Conditions: Example 1 compounds; 10 mg/kg s.c., 20 min after injection. The method, then:
In this assay, the duration for which mice kept their tails in the warm water was recorded.
All thirty-six compounds' antinociception were examined in tail immersion assay first to preclude any opioid receptor agonists.
Swiss Webster mice (six male mice for each group, 25-35 g, 6-8 weeks old) were used in this assay. Antinociception for all compounds was examined in male Swiss Webster mice. […] To prevent tissue damage, a 10 s maximum cutoff time was imposed. Antinociceptive response was calculated as the percentage of maximum possible effect (% MPE), where % MPE=[(test−control latency)/(10−control latency)]×100.
Warm-water tail immersion assay is a well-established assay for evaluating opioid analgesics, especially MOR agonists. […] In this context, all 24 compounds were first evaluated for their acute antinociception tail-withdrawal assay (FIG. 5A).
The tail-withdrawal test was performed using a water bath with the temperature maintained at 56±0.1° C. Baseline latency was measured before any injections. Each mouse was gently wrapped in a cloth with only the tail exposed. The distal one-third of the tail was immersed perpendicularly in water, and the mouse rapidly flicked the tail from the bath was seen as the first sign of discomfort. The duration of time the tail remained in the water bath was counted as the baseline latency. Untreated mice with baseline latency reaction times ranging from 2 to 4 seconds were used. Test latency was obtained 20 min later after each injection. A 10-second maximum cutoff latency was used to prevent any tissue damage. Antinociception was quantified as the percentage of maximal possible effect (% MPE), which was calculated as % MPE=[(test latency−control latency)/(10−control latency)]×100. The % MPE value was calculated for each mouse using 6 mice per group. Testing compounds were given 10 mg/kg (s.c.) to each mouse.

Data set [5] has as its target T2, MOR. Conditions: read-out: Ki (nM) MOR; Example 1 compounds (Tables 1, 2).
Data set [6] addresses T3, KOR (Mus musculus, UniProt P33534). Kind of data set: competitive radioligand binding assay, KOR ([3H]diprenorphine, CHO cell membranes). More on the design: expressed in transfected cells; host or cells: CHO. The settings on record: read-out: Ki (nM) KOR.
The target in data set [7] is Human recombinant opioid receptors (MOR) (Homo sapiens, UniProt P35372). Conditions: read-out: MOR [35S]-GTPγS Binding EC50; MNTX, reported data; cited from earlier work.
The target in data set [8] is Human recombinant opioid receptors (KOR) (Homo sapiens, UniProt P41145). Conditions: read-out: KOR [35S]-GTPγS binding EC50; MNTX, reported data; cited from earlier work.
For data set [9] the following is noted: male rats, oral administration; cited from earlier work.
The test system of data set [10] is mice. Kind of data set: carmine red dye study (GI tract motility, morphine-induced constipation).
Data set [11] concerns the target T3, KOR. Conditions: read-out: Ki (nM) KOR; reference data adopted from literature; cited from earlier work.
Data set [12] deals with male Swiss Webster mice. Conditions: reference compounds, literature / previous studies; cited from earlier work.
The mark [13] stands for this setting: Example 1 compounds (Tables 1, 2).

For the compound “17-Cyclopropylmethyl-3,14β-dihydroxy-4,5α-epoxy-6α-(2′-thienylacetamido)morphinan hydrochloride [Example 1 compound 27]”, the Ki (usually a dissociation constant, usually derived from enzyme kinetics or from competition with a known ligand) in data set [1] (setting [13]) came to 6.92 ± 1.63 nM.

Regarding “17-Cyclopropylmethyl-3,14β-dihydroxy-4,5α-epoxy-6β-(2′-thienylacetamido)morphinan hydrochloride [Example 1 compound 28]”, the Ki in [1] (setting [13]) was determined as 64.9 ± 2.38 nM.

Regarding `O=C(N[C@@H]1CC[C@@]2(O)[C@H]3Cc4ccc(O)c5c4[C@@]2(CCN3CC2CC2)[C@H]1O5)c1cccs1` [Example 1 compound 26, 17-Cyclopropylmethyl-3,14β-dihydroxy-4,5α-epoxy-6β-(2′-thienylcarboxamido)morphinan hydrochloride], the “withdrawal symptoms (wet-dog shakes, escape jumps, paw tremors)” value in [2] was “significantly fewer wet-dog shakes, escape jumps, and paw tremors”. For the same compound, the “withdrawal symptoms at higher doses” value in [2] (5 mg/kg and above, s.c.) is on record as “did not precipitate significant withdrawal symptoms at doses as high as 10 times that of NLX”.

Consider `O=C(CCc1cccs1)N[C@H]1CC[C@@]2(O)[C@H]3Cc4ccc(O)c5c4[C@@]2(CCN3CC2CC2)[C@H]1O5` [Example 1 compound 29, 17-Cyclopropylmethyl-3,14β-dihydroxy-4,5α-epoxy-6α-[3′-(thiophen-2″yl)propanamido]morphinan hydrochloride], for which the Emax – broadly, the size of the effect at its maximum, as opposed to the concentration needed – in data set [3] turned out to be 43.7 ± 1.71%.

Take `Cl.O=C(CCc1cccs1)N[C@@H]1CC[C@@]2(O)[C@H]3Cc4ccc(O)c5c4[C@@]2(CCN3CC2CC2)[C@H]1O5` [Example 1 compound 30, 17-Cyclopropylmethyl-3,14β-dihydroxy-4,5α-epoxy-6β-[3′-(thiophen-2 yl)propanamido]morphinan hydrochloride]: the figures for the Ki in [1], in [5] and in data set [6] were 4.87 ± 1.19 nM, 0.26 ± 0.01 nM and 0.23 ± 0.02 nM, respectively. In data set [4], the “antinociceptive effect (% MPE, in words)” value is listed as “exhibited antinociception”.

In the case of `O=C(Cc1ccsc1)N[C@H]1CC[C@@]2(O)[C@H]3Cc4ccc(O)c5c4[C@@]2(CCN3CC2CC2)[C@H]1O5` [Example 1 compound 33, 17-Cyclopropylmethyl-3,14β-dihydroxy-4,5α-epoxy-6α-(3′-thienylacetamido)morphinan hydrochloride], the Emax in [3] was found to be 28.6 ± 1.15%.

Take `O=C(Cc1ccsc1)N[C@@H]1CC[C@@]2(O)[C@H]3Cc4ccc(O)c5c4[C@@]2(CCN3CC2CC2)[C@H]1O5` [Example 1 compound 34, 17-Cyclopropylmethyl-3,14β-dihydroxy-4,5α-epoxy-6β-(3′-thienylacetamido)morphinan hydrochloride]: the maximal effect (Emax) in data set [3] was 26.5 ± 3.17%.

For the compound `C[N@+]1(CC2CC2)CC[C@]23c4c5ccc(O)c4O[C@H]2C(=O)CC[C@@]3(O)[C@H]1C5` [MNTX, methylnaltrexone], the EC50 in [7] and in [8] was more than 10000 nM in each case. For the same compound, the oral bioavailability in data set [9] is on record as less than 1%. The “blockage of GI motility inhibition by morphine (in words)” value in data set [10] (10 mg/kg oral gavage, morphine 5 mg/kg) was “no blockage was observed”.

For `O=C(NC1CCC2(O)C3Cc4ccc(O)c5c4C2(CCN3CC2CC2)C1O5)c1ccncc1` (stereo not drawn) [NAP, 17-cyclopropylmethyl-3,14-dihydroxy-4,5α-epoxy-6β-[(4′-pyridyl)carboxamido]morphinan], in data set [11], the Ki is 278 ± 8 nM.

As to `O=C(N[C@@H]1CC[C@@]2(O)[C@H]3Cc4ccc(O)c5c4C2(CCN3CC2CC2)[C@H]1O5)c1ccncc1F` [NFP], the “AD50 mg/kg (95% CL) to antagonize morphine mediated antinociception” value in data set [12] was 2.82 mg/kg.

On to `C=CCN1CC[C@]23c4c5ccc(O)c4O[C@H]2C(=O)CC[C@@]3(O)[C@H]1C5` [NLX, naloxone, reference compound], for which the “AD50 mg/kg (95% CL) to antagonize morphine mediated antinociception” value in data set [12] was 0.05 mg/kg. For the same compound, the “withdrawal symptoms (wet-dog shakes, escape jumps, paw tremors)” value in data set [2] is on record as “precipitated withdrawal symptoms”.

`CN1CC[C@]23c4c5ccc(O)c4O[C@H]2[C@@H](O)C=C[C@H]3[C@H]1C5` [morphine]: the “elongation of pellet defecation time compared to naïve group” value in [10] (morphine 10 mg/kg s.c.) was 124 min.

These data come from patent US20250195504A1, “NALTREXAMINE DERIVATIVES BEARING 5-MEMBER HETEROCYCLIC RING SYSTEMS AND OPIOID RECEPTOR MODULATORS” (VIRGINIA COMMONWEALTH UNIVERSITY, priority 2022, published 2025).
